The text below walks through data of ChEMBL document CHEMBL5252552, “Defined concatenated α6α1β3γ2 GABAA receptor constructs reveal dual action of pyrazoloquinolinone allosteric modulators” (Bioorg Med Chem, 2019).

Molecules are shown by their SMILES.

Assay [1] concerns the target T1, Gamma-aminobutyric acid receptor subunit alpha-6/beta-3/gamma-2 (Rattus norvegicus, UniProt P18508+P30191+P63079). Kind of assay: Positive allosteric modulation of rat recombinant GABAA alpha6beta3alpha6-gamma2beta3 receptor expressed in Xenopus laevis oocytes assessed as increase in GABA-induced current amplitude at -80 mV holding potential under less potent phase in presence of GABA EC1 to 1.5 by two-electrode voltage-clamp assay. It is filed as cell-based, Oocyte.

Assay [2] has as its target T2, Gamma-aminobutyric acid receptor subunit alpha-1/alpha-6/beta-3/gamma-2 (Rattus norvegicus, UniProt P18508+P30191+P62813+P63079). Kind of assay: Positive allosteric modulation of rat recombinant GABAA gamma2beta3alpha1-beta3alpha6 receptor expressed in Xenopus laevis oocytes assessed as increase in GABA-induced current amplitude at -80 mV holding potential under more potent phase in presence of GABA EC1 to 1.5 by two-electrode voltage-clamp assay. It is filed as cell-based, Oocyte.

Assay [3] addresses T2, Gamma-aminobutyric acid receptor subunit alpha-1/alpha-6/beta-3/gamma-2. Kind of assay: Positive allosteric modulation of rat recombinant GABAA gamma2beta3alpha1-beta3alpha6 receptor expressed in Xenopus laevis oocytes assessed as increase in GABA-induced current amplitude at -80 mV holding potential under less potent phase in presence of GABA EC1 to 1.5 by two-electrode voltage-clamp assay. It is filed as cell-based, Oocyte.

In assay [4] the target is T1, Gamma-aminobutyric acid receptor subunit alpha-6/beta-3/gamma-2. Kind of assay: Positive allosteric modulation of rat recombinant GABAA alpha6beta3gamma2 receptor expressed in Xenopus laevis oocytes assessed as increase in GABA-induced current amplitude at -80 mV holding potential under less potent phase in presence of GABA EC1 to 1.5 by two-electrode voltage-clamp assay. In kind it is cell-based, Oocyte.

Assay [5] addresses Gamma-aminobutyric acid receptor subunit alpha-1/beta-3/gamma-2 (Rattus norvegicus, UniProt P18508+P62813+P63079). Kind of assay: Positive allosteric modulation of rat recombinant GABAA alpha1beta3gamma2 receptor expressed in Xenopus laevis oocytes assessed as increase in GABA-induced current amplitude at -80 mV holding potential under less potent phase in presence of GABA EC1 to 1.5 by two-electrode voltage-clamp assay. In kind it is cell-based, Oocyte.

Assay [6] concerns the target T3, Gamma-aminobutyric acid receptor subunit alpha-6/beta-3/gamma-2 (Rattus norvegicus) (UniProt P18508+P30191+P63079). Kind of assay: Positive allosteric modulation of rat recombinant GABAA alpha6beta3alpha6-gamma2beta3 receptor expressed in Xenopus laevis oocytes assessed as maximal efficacy at -80 mV holding potential at 300 nM in presence of GABA EC1 to 1.5 by two-electrode voltage-clamp assay. It is filed as cell-based. The conditions noted are these: Oocyte, filed as positive allosteric modulator.

Assay [7] addresses T3, Gamma-aminobutyric acid receptor subunit alpha-6/beta-3/gamma-2 (Rattus norvegicus). Kind of assay: Positive allosteric modulation of rat recombinant GABAA alpha6beta3alpha6-gamma2beta3 receptor expressed in Xenopus laevis oocytes assessed as maximal efficacy at -80 mV holding potential at 1 uM in presence of GABA EC1 to 1.5 by two-electrode voltage-clamp assay. In kind it is cell-based. The note with it: Oocyte, filed as positive allosteric modulator.

For assay [8], the target named is T4, Gamma-aminobutyric acid receptor subunit alpha-1/beta-3/gamma-2 (Rattus norvegicus) (UniProt P18508+P62813+P63079). Kind of assay: Positive allosteric modulation of rat recombinant GABAA alpha1beta3gamma2 receptor expressed in Xenopus laevis oocytes assessed as maximal efficacy at -80 mV holding potential at 30 nM in presence of GABA EC1 to 1.5 by two-electrode voltage-clamp assay. In kind it is cell-based. The conditions noted are these: Oocyte.

Assay [9] has as its target T4, Gamma-aminobutyric acid receptor subunit alpha-1/beta-3/gamma-2 (Rattus norvegicus). Kind of assay: Positive allosteric modulation of rat recombinant GABAA alpha1beta3gamma2 receptor expressed in Xenopus laevis oocytes assessed as maximal efficacy at -80 mV holding potential at 1 uM in presence of GABA EC1 to 1.5 by two-electrode voltage-clamp assay. In kind it is cell-based. The note with it: Oocyte.

Assay [10] shares this target. Kind of assay: Positive allosteric modulation of rat recombinant GABAA alpha1beta3gamma2 receptor expressed in Xenopus laevis oocytes assessed as maximal efficacy at -80 mV holding potential at 3 uM in presence of GABA EC1 to 1.5 by two-electrode voltage-clamp assay. The note with it: Oocyte, filed as positive allosteric modulator. It is filed as cell-based.
For assay [11] the target is unchanged. Kind of assay: Positive allosteric modulation of rat recombinant GABAA alpha1beta3gamma2 receptor expressed in Xenopus laevis oocytes assessed as maximal efficacy at -80 mV holding potential at 10 uM in presence of GABA EC1 to 1.5 by two-electrode voltage-clamp assay. In kind it is cell-based. The conditions noted are these: Oocyte, filed as positive allosteric modulator.

Assay [12] concerns the target T5, Gamma-aminobutyric acid receptor subunit alpha-1/alpha-6/beta-3/gamma-2 (Rattus norvegicus) (UniProt P18508+P30191+P62813+P63079). Kind of assay: Positive allosteric modulation of rat recombinant GABAA gamma2beta3alpha1-beta3alpha6 receptor expressed in Xenopus laevis oocytes assessed as maximal efficacy at -80 mV holding potential at 1 nM in presence of GABA EC1 to 1.5 by two-electrode voltage-clamp assay. In kind it is cell-based. The note with it: Oocyte.

The target of assay [13] is T5, Gamma-aminobutyric acid receptor subunit alpha-1/alpha-6/beta-3/gamma-2 (Rattus norvegicus). Kind of assay: Positive allosteric modulation of rat recombinant GABAA gamma2beta3alpha1-beta3alpha6 receptor expressed in Xenopus laevis oocytes assessed as maximal efficacy at -80 mV holding potential at 3 nM in presence of GABA EC1 to 1.5 by two-electrode voltage-clamp assay. It is filed as cell-based. The conditions noted are these: Oocyte.

Assay [14] shares this target. Kind of assay: Positive allosteric modulation of rat recombinant GABAA gamma2beta3alpha1-beta3alpha6 receptor expressed in Xenopus laevis oocytes assessed as maximal efficacy at -80 mV holding potential at 10 nM in presence of GABA EC1 to 1.5 by two-electrode voltage-clamp assay. The note with it: Oocyte. In kind it is cell-based.
The target is the same in assay [15]. Kind of assay: Positive allosteric modulation of rat recombinant GABAA gamma2beta3alpha1-beta3alpha6 receptor expressed in Xenopus laevis oocytes assessed as maximal efficacy at -80 mV holding potential at 300 nM in presence of GABA EC1 to 1.5 by two-electrode voltage-clamp assay. In kind it is cell-based. The note with it: Oocyte, filed as positive allosteric modulator.

Assay [16] shares this target. Kind of assay: Positive allosteric modulation of rat recombinant GABAA gamma2beta3alpha1-beta3alpha6 receptor expressed in Xenopus laevis oocytes assessed as maximal efficacy at -80 mV holding potential at 10 uM in presence of GABA EC1 to 1.5 by two-electrode voltage-clamp assay. In kind it is cell-based. The note with it: Oocyte, filed as positive allosteric modulator.

For assay [17], the target named is T3, Gamma-aminobutyric acid receptor subunit alpha-6/beta-3/gamma-2 (Rattus norvegicus). Kind of assay: Positive allosteric modulation of rat recombinant GABAA alpha6beta3gamma2 receptor expressed in Xenopus laevis oocytes assessed as maximal efficacy at -80 mV holding potential at 1 nM in presence of GABA EC1 to 1.5 by two-electrode voltage-clamp assay. The conditions noted are these: Oocyte. It is filed as cell-based.

Assay [18] has the same target. Kind of assay: Positive allosteric modulation of rat recombinant GABAA alpha6beta3gamma2 receptor expressed in Xenopus laevis oocytes assessed as maximal efficacy at -80 mV holding potential at 3 uM in presence of GABA EC1 to 1.5 by two-electrode voltage-clamp assay. It is filed as cell-based. The conditions noted are these: Oocyte, filed as positive allosteric modulator.

For assay [19] the target is unchanged. Kind of assay: Positive allosteric modulation of rat recombinant GABAA alpha6beta3gamma2 receptor expressed in Xenopus laevis oocytes assessed as maximal efficacy at -80 mV holding potential at 10 uM in presence of GABA EC1 to 1.5 by two-electrode voltage-clamp assay. In kind it is cell-based. The conditions noted are these: Oocyte, filed as positive allosteric modulator.

The target is the same in assay [20]. Kind of assay: Positive allosteric modulation of rat recombinant GABAA alpha6beta3gamma2 receptor expressed in Xenopus laevis oocytes assessed as maximal efficacy at -80 mV holding potential at 30 uM in presence of GABA EC1 to 1.5 by two-electrode voltage-clamp assay. The conditions noted are these: Oocyte, filed as positive allosteric modulator. It is filed as cell-based.

For assay [21], the target named is T5, Gamma-aminobutyric acid receptor subunit alpha-1/alpha-6/beta-3/gamma-2 (Rattus norvegicus). Kind of assay: Positive allosteric modulation of rat recombinant GABAA alpha6beta3alpha1-gamma2beta3 receptor expressed in Xenopus laevis oocytes assessed as maximal efficacy at -80 mV holding potential at 1 uM in presence of GABA EC1 to 1.5 by two-electrode voltage-clamp assay. In kind it is cell-based. The note with it: Oocyte, filed as positive allosteric modulator.

For assay [22] the target is unchanged. Kind of assay: Positive allosteric modulation of rat recombinant GABAA alpha6beta3alpha1-gamma2beta3 receptor expressed in Xenopus laevis oocytes assessed as maximal efficacy at -80 mV holding potential at 10 uM in presence of GABA EC1 to 1.5 by two-electrode voltage-clamp assay. It is filed as cell-based. The conditions noted are these: Oocyte, filed as positive allosteric modulator.

T2 sequence (P18508 whole entry): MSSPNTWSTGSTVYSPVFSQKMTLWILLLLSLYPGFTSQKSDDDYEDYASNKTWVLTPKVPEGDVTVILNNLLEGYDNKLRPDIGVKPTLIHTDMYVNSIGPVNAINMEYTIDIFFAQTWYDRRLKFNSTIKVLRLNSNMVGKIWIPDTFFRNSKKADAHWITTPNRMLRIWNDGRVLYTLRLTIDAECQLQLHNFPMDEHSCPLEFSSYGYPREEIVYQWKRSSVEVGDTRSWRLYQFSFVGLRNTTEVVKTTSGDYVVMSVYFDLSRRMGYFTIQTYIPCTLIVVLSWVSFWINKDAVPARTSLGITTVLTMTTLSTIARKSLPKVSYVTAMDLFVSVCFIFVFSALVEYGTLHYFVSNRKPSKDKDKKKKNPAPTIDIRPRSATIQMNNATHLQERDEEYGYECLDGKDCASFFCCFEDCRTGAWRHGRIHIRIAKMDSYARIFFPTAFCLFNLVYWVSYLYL
T2 sequence (P30191 whole entry): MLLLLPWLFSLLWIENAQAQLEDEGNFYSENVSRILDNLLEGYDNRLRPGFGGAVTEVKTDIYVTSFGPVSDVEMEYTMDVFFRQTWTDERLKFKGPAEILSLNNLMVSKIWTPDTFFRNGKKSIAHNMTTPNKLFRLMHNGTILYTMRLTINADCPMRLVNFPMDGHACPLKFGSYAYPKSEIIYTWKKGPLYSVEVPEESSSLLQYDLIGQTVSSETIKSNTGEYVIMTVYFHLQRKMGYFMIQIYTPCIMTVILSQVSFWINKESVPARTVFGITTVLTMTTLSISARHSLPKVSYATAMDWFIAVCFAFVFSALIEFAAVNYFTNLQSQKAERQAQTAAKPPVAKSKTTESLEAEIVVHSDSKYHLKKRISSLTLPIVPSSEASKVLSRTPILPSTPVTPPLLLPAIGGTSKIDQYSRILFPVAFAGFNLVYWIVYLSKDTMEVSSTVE
T2 sequence (P62813 whole entry): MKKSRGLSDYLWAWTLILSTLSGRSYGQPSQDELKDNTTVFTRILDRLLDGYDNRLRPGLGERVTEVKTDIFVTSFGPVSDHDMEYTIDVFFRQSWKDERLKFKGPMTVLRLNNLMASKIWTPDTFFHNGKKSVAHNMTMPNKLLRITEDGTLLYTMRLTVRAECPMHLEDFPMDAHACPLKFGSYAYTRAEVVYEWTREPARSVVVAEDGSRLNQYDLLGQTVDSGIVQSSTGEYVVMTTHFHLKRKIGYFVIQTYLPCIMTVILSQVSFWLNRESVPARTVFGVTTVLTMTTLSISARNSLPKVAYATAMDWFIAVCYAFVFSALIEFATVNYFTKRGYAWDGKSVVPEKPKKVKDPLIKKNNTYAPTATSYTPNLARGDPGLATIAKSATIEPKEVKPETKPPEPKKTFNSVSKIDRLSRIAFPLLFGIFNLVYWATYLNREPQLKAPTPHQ
T2 sequence (P63079 whole entry): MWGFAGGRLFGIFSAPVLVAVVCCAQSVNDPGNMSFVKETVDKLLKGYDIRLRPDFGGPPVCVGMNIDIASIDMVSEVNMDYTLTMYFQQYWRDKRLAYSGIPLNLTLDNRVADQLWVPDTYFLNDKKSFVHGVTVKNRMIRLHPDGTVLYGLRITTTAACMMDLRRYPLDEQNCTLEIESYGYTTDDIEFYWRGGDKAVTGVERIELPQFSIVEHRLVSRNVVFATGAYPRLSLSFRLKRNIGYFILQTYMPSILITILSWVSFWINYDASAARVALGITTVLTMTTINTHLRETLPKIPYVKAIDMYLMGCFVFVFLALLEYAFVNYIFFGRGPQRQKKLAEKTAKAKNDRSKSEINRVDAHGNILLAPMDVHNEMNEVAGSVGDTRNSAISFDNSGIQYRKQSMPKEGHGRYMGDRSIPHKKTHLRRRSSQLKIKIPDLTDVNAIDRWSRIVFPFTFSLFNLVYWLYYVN
T1 sequence (P18508 whole entry): as the sequence (P18508 whole entry) above
T1 sequence (P30191 whole entry): as the sequence (P30191 whole entry) above
T1 sequence (P63079 whole entry): as the sequence (P63079 whole entry) above
Gamma-aminobutyric acid receptor subunit alpha-1/beta-3/gamma-2, sequence (P18508 whole entry): as the sequence (P18508 whole entry) above
Gamma-aminobutyric acid receptor subunit alpha-1/beta-3/gamma-2, sequence (P62813 whole entry): as the sequence (P62813 whole entry) above
Gamma-aminobutyric acid receptor subunit alpha-1/beta-3/gamma-2, sequence (P63079 whole entry): as the sequence (P63079 whole entry) above

Turning to `COc1ccc(-n2nc3c4ccc(Br)cc4[nH]cc-3c2=O)cc1`, the EC50 in assay [1] came to 24 µM; in assay [2], 0.004 µM; in assay [3], 36 µM; in assay [4] it was 11 µM; in assay [5] it was 6 µM. Further, the Efficacy in assay [6] was determined as 124%; in [7] it was 196%; in [8], 2%; in [9] it was 18%; in [10], 54%; in assay [11], 84%. Moreover, the Efficacy in assay [12] came out at 3%; in assay [13], 16%; in [14], 23%; in assay [15], 48%; in assay [16], 186%; in assay [17] it was 9%. Besides, the Efficacy in assay [18] was found to be 377%; in assay [19], 585%; in assay [20] it was 595%; in [21], 144%; in [22], 662%.
